This passage reports IC50 results from patent US20100286136A1, “DIHYDRONAPHTHYRIDINYL AND RELATED COMPOUNDS FOR USE IN TREATING OPHTHALMOLOGICAL DISORDERS” (priority 2009, published 2010).

The target in the test is T1, CCR2b (Homo sapiens, UniProt P41597).
T1 construct: host or cells: AequoScreen CCR2b cells
T1 sequence (P41597 1-360 isoform P41597-2): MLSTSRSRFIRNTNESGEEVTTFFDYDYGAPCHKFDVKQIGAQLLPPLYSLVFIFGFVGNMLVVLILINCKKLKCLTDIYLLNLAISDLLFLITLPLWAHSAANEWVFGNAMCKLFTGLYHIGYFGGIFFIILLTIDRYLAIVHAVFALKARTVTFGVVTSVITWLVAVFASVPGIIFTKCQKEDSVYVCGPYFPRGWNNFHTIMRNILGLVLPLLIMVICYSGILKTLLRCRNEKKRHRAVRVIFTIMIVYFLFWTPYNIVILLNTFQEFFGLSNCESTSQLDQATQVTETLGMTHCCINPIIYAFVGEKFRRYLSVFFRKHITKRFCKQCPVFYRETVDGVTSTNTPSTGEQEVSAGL
Kind of test: AequoScreen CCR2b calcium flux assay, antagonist mode against reference agonist MCP-1. The settings on record: AequoScreen CCR2b (FAST-060A) cells; inhibition of reference agonist MCP-1 at its EC80; read-out: IC50 (μM) Ca^++flux. It counts as cell-based. How it is done:
The biological activity of the compounds described herein can be evaluated using assays known in the art, such as the AequoScreen™ assay.
AequoScreen™ CCR2b (FAST-060A) cells grown to mid-log phase in culture media without antibiotics are detached with PBS-EDTA, centrifuged and resuspended in assay buffer (DMEM/HAM's F12 with HEPES, without phenol red+0.1% BSA protease free) at a concentration of 1×10^6 cells/mL. Cells are incubated at room temperature for at least 4 hours with coelenterazine h. Dose response curves are performed before testing. The reference agonist is MCP-1.
For agonist testing, 50 μL of cell suspension is mixed with 50 μL of test compound in a 96-well plate. The resulting emission of light is recorded using a Hamamatsu Functional Drug Screening System 6000 (FDSS 6000).
Following an incubation of 15 minutes after the first injection, 100 μL of the resulting cell suspension containing the test compound is mixed with 100 μL of the reference agonist in the 96 well test plate. The resulting emission of light is recorded using the same luminometer as for agonist testing.
Agonist activity of a test compound can be expressed as a percentage of the activity of the reference agonist at its EC100 concentration. Antagonist activity of a test compound can be expressed as a percentage of the inhibition of reference agonist activity at its EC80 concentration.
(In general: Calcium assays in cells follow changes in intracellular calcium, usually with a dye or a luminescent sensor.)

As to `CC(c1ccc2c(c1)n(C)c(=O)n2C)N1CCC(CC2CC2)(C(=O)N2CCc3ncc(C(F)(F)F)cc3C2)C1` (stereo not shown) [Example 16, 5-(1-(3-(Cyclopropylmethyl)-3-(3-(trifluoromethyl)-5,6,7,8-tetrahydro-1,6-naphthyridine-6-carbonyl)pyrrolidin-1-yl)ethyl)-1,3-dimethyl-1H-benzo[d]imidazol-2(3H)-one], the IC50 was more than 1 µM. `O=C(N1CCc2ncc(C(F)(F)F)cc2C1)C1(CC2CC2)CCN(Cc2ccc3[nH]ncc3c2)C1` (stereo not shown) [Example 17, (1-((1H-Indazol-5-yl)methyl)-3-(cyclopropylmethyl)pyrrolidin-3-yl)(3-(trifluoromethyl)-7,8-dihydro-1,6-naphthyridin-6(5H)-yl)methanone]: the IC50 was more than 1 µM. As for `Cn1c(=O)ccc2cc(CN3CCC(CC4CC4)(C(=O)N4CCc5ncc(C(F)(F)F)cc5C4)C3)ccc21` (stereo not shown) [Example 22, 6-((3-(Cyclopropylmethyl)-3-(3-(trifluoromethyl)-5,6,7,8-tetrahydro-1,6-naphthyridine-6-carbonyl)pyrrolidin-1-yl)methyl)-1-methylquinolin-2(1H)-one], the IC50 was more than 1 µM.

With `Cn1c(=O)oc2ccc(CN3CCC(CC4CC4)(C(=O)N4CCc5ncc(C(F)(F)F)cc5C4)C3)cc21` (stereo not shown) [Example 23, 5-((3-(Cyclopropylmethyl)-3-(3-(trifluoromethyl)-5,6,7,8-tetrahydro-1,6-naphthyridine-6-carbonyl)pyrrolidin-1-yl)methyl)-3-methylbenzo[d]oxazol-2(3H)-one], the IC50 was less than 0.2 µM. The figure for `CC(C)CC1(C(=O)N2CCc3ncc(C(F)(F)F)cc3C2)CCN(Cc2ccc3oc(=O)n(C)c3c2)C1` (stereo not shown) [Example 24, 5-((3-Isobutyl-3-(3-(trifluoromethyl)-5,6,7,8-tetrahydro-1,6-naphthyridine-6-carbonyl)pyrrolidin-1-yl)methyl)-3-methylbenzo[d]oxazol-2(3H)-one] is less than 0.2 µM. The figure for `COCC1(C(=O)N2CCc3ncc(C(F)(F)F)cc3C2)CCN(Cc2ccc3ccc(=O)n(C)c3c2)C1` (stereo not shown) [Example 25, 7-((3-(Methoxymethyl)-3-(3-(trifluoromethyl)-5,6,7,8-tetrahydro-1,6-naphthyridine-6-carbonyl)pyrrolidin-1-yl)methyl)-1-methylquinolin-2(1H)-one] is less than 0.2 µM; for `COCC1(C(=O)N2CCc3ncc(C(F)(F)F)cc3C2)CCN(Cc2ccc3sc(=O)n(C)c3c2)C1` (stereo not shown) [Example 28, 5-((3-(Methoxymethyl)-3-(3-(trifluoromethyl)-5,6,7,8-tetrahydro-1,6-naphthyridine-6-carbonyl)pyrrolidin-1-yl)methyl)-3-methylbenzo[d]thiazol-2(3H)-one] it is less than 0.2 µM. As to `COCC1(C(=O)N2CCc3ncc(C(F)(F)F)cc3C2)CCN(C(C)c2ccc3c(c2)n(C)c(=O)n3C)C1` (stereo not shown) [Example 29, 5-(1-(3-(Methoxymethyl)-3-(3-(trifluoromethyl)-5,6,7,8-tetrahydro-1,6-naphthyridine-6-carbonyl)pyrrolidin-1-yl)ethyl)-1,3-dimethyl-1H-benzo[d]imidazol-2(3H)-one], the IC50 is less than 0.2 µM. With `COCC1(C(=O)N2CCc3ncc(C(F)(F)F)cc3C2)CCN(Cc2ccc3c(c2)N(C)C(=O)CO3)C1` (stereo not shown) [Example 32, 6-((3-(Methoxymethyl)-3-(3-(trifluoromethyl)-5,6,7,8-tetrahydro-1,6-naphthyridine-6-carbonyl)pyrrolidin-1-yl)methyl)-4-methyl-2H-benzo[b][1,4]oxazin-3(4H)-one], the IC50 was less than 0.2 µM.

`COCC1(C(=O)N2CCc3ncc(C(F)(F)F)cc3C2)CCN(C(C)c2ccc3c(c2)N(C)C(=O)CO3)C1` (stereo not shown) [Example 33, 6-(1-(3-(Methoxymethyl)-3-(3-(trifluoromethyl)-5,6,7,8-tetrahydro-1,6-naphthyridine-6-carbonyl)pyrrolidin-1-yl)ethyl)-4-methyl-2H-benzo[b][1,4]oxazin-3(4H)-one]: the IC50 was less than 0.2 µM.

Turning to `COCC1(C(=O)N2CCc3ncc(C(F)(F)F)cc3C2)CCN(C(C)c2ccc3oc(=O)n(C)c3c2)C1` (stereo not shown) [Example 34, 5-(1-(3-(Methoxymethyl)-3-(3-(trifluoromethyl)-5,6,7,8-tetrahydro-1,6-naphthyridine-6-carbonyl)pyrrolidin-1-yl)ethyl)-3-methylbenzo[d]oxazol-2(3H)-one], the IC50 was less than 0.2 µM.

As to `COCC1(C(=O)N2CCc3ncc(C(F)(F)F)cc3C2)CCN(C2CCC(O)(C3CC3)CC2)C1` (stereo not shown) [Example 35], the IC50 lay within 0.2 to 1 µM. As for `COCC1(C(=O)N2CCc3ncc(C(F)(F)F)cc3C2)CCN(Cc2cc3c(ccc(=O)n3C)cc2Cl)C1` (stereo not shown) [Example 36, 6-Chloro-7-((3-(methoxymethyl)-3-(3-(trifluoromethyl)-5,6,7,8-tetrahydro-1,6-naphthyridine-6-carbonyl)pyrrolidin-1-yl)methyl)-1-methylquinolin-2(1H)-one], the IC50 lay in the range of 0.2 to 1 µM.

`COCC1(C(=O)N2CCc3ncc(C(F)(F)F)cc3C2)CCN(Cc2cc3c(cc2Cl)oc(=O)n3C)C1` (stereo not shown) [Example 37, 6-Chloro-5-((3-(methoxymethyl)-3-(3-(trifluoromethyl)-5,6,7,8-tetrahydro-1,6-naphthyridine-6-carbonyl)pyrrolidin-1-yl)methyl)-3-methylbenzo[d]oxazol-2(3H)-one]: the IC50 was less than 0.2 µM. The figure for `COCC1(C(=O)N2CCc3ncc(C(F)(F)F)cc3C2)CCN(Cc2ccc3c(c2)n(C)c(=O)n3C)C1` (stereo not shown) [Example 38, 5-((3-(Methoxymethyl)-3-(3-(trifluoromethyl)-5,6,7,8-tetrahydro-1,6-naphthyridine-6-carbonyl)pyrrolidin-1-yl)methyl)-1,3-dimethyl-1H-benzo[d]imidazol-2(3H)-one] is more than 1 µM; for `COCC1(C(=O)N2CCc3ncc(C(F)(F)F)cc3C2)CCN(Cc2ccc3oc(=O)n(C)c3c2)C1` (stereo not shown) [Example 39, 5-((3-(Methoxymethyl)-3-(3-(trifluoromethyl)-5,6,7,8-tetrahydro-1,6-naphthyridine-6-carbonyl)pyrrolidin-1-yl)methyl)-3-methylbenzo[d]oxazol-2(3H)-one] it is less than 0.2 µM; for `CCOCC1(C(=O)N2CCc3ncc(C(F)(F)F)cc3C2)CCN(Cc2ccc3oc(=O)n(C)c3c2)C1` (stereo not shown) [Example 45, 5-((3-(Ethoxymethyl)-3-(3-(trifluoromethyl)-5,6,7,8-tetrahydro-1,6-naphthyridine-6-carbonyl)pyrrolidin-1-yl)methyl)-3-methylbenzo[d]oxazol-2(3H)-one] it is less than 0.2 µM.

As for `COCC1(C(=O)N2CCc3ccc(C(F)(F)F)cc3C2)CCN(Cc2ccc3oc(=O)n(C)c3c2)C1` (stereo not shown) [Example 46, 5-((3-(methoxymethyl)-3-(7-(trifluoromethyl)-1,2,3,4-tetrahydroisoquinoline-2-carbonyl)pyrrolidin-1-yl)methyl)-3-methylbenzo[d]oxazol-2(3H)-one], the IC50 was less than 0.2 µM. The result for `CC(C)C1(C(=O)N2CCc3ncc(C(F)(F)F)cc3C2)CCN(Cc2ccc3oc(=O)n(C)c3c2)C1` (stereo not shown) [Example 47, 5-((3-isopropyl-3-(3-(trifluoromethyl)-5,6,7,8-tetrahydro-1,6-naphthyridine-6-carbonyl)pyrrolidin-1-yl)methyl)-3-methylbenzo[d]oxazol-2(3H)-one] reads less than 0.2 µM. The figure for `Cn1c(=O)oc2ccc(CN3CCC(CC#N)(C(=O)N4CCc5ncc(C(F)(F)F)cc5C4)C3)cc21` (stereo not shown) [Example 48, 2-(1-((3-methyl-2-oxo-2,3-dihydrobenzo[d]oxazol-5-yl)methyl)-3-(3-(trifluoromethyl)-5,6,7,8-tetrahydro-1,6-naphthyridine-6-carbonyl)pyrrolidin-3-yl)acetonitrile] is 0.2 to 1 µM; for `Cn1c(=O)oc2ccc(CN3CCC(CO)(C(=O)N4CCc5ncc(C(F)(F)F)cc5C4)C3)cc21` (stereo not shown) [Example 49, 5-((3-(Hydroxymethyl)-3-(3-(trifluoromethyl)-5,6,7,8-tetrahydro-1,6-naphthyridine-6-carbonyl)pyrrolidin-1-yl)methyl)-3-methylbenzo[d]oxazol-2(3H)-one] it is more than 1 µM; for `CC(C)CC1(C(=O)N2CCc3ncc(C(F)(F)F)cc3C2)CCN(Cc2ccc3c(c2)sc(=O)n3C)CC1` [Example 58, 6-((4-Isobutyl-4-(3-(trifluoromethyl)-5,6,7,8-tetrahydro-1,6-naphthyridine-6-carbonyl)piperidin-1-yl)methyl)-3-methylbenzo[d]thiazol-2(3H)-one] it is more than 1 µM.

As a reminder, the IC50 is the point on the concentration scale where inhibition reaches its midpoint.
